Laboratory results from US20060217418A1, “Substituted alkyl amido piperidines” (priority 2001, published 2006).

The compounds below were run against T1, rat MCH1 receptor (Rattus norvegicus, UniProt P97639) (assay: Radioligand binding assay at cloned rat MCH1 receptor ([3H]Compound A)). Details: cloned rat MCH1, Peakr293 cell membranes, 0.08 nM [3H]Compound A, 25° C., 90 minutes; read-out: Ki(MCH-1).
T1 construct: operatively linked to DNA encoding the rat MCH1 receptor so as to permit expression thereof; expressed in transfected cells; host or cells: Human embryonic kidney Peak rapid 293 (Peakr293) cells, transient calcium phosphate transfection, membranes
T1 sequence (P97639 whole entry): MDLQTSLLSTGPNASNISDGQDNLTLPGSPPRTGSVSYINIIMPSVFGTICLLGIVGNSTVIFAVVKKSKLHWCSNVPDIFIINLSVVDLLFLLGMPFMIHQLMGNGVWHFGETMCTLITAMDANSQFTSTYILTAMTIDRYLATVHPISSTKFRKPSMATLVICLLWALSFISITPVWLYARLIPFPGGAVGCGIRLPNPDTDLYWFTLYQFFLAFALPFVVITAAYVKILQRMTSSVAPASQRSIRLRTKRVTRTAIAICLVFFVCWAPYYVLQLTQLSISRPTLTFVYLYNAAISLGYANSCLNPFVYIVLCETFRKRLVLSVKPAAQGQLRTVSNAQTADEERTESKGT
For `CCCC(=O)Nc1cc(C2CCN(CCCNC(=O)C3(c4ccc(F)cc4)CCCC3)CC2)ccc1F` [Example 107], the Ki was 101 nM. With `Cc1c(NC(=O)C(C)C)cccc1C1CCN(CCCNC(=O)C(c2ccccc2)c2ccccc2)CC1` [Example 33] the Ki was 496 nM. `CC(C)C(=O)Nc1cccc(C2CCN(CCCNC(=O)C(C)c3ccc(F)cc3)CC2)c1` (stereo not shown) [Example 42, 2-(4-FLUOROPHENYL)-N-(3-{4-[3-(ISOBUTYRYLAMINO)PHENYL]-1-PIPERIDINYL} PROPYL)PROPANAMIDE] gave a Ki of 34.3 nM. For `CC(=O)Nc1cccc(C2CCN(CCCNC(=O)C(C)(C)c3ccc(Cl)cc3)CC2)c1` [Example 79, N-(3-{4-[3-(ACETYLAMINO)PHENYL]-1-PIPERIDINYL}PROPYL)-2-(4-CHLORO PHENYL)-2-METHYLPROPANAMIDE], the Ki was 5.9 nM. `CCC(=O)Nc1cccc(C2CCN(CCCNC(=O)C3(c4ccc(Cl)cc4)CCCC3)CC2)c1` [Example 62, 1-(4-CHLOROPHENYL)-N-(3-{4-[3-PROPIONYLAMINO)PHENYL]-1-PIPERIDINYL} PROPYL)CYCLOPENTANECARBOXAMIDE] was tested, and the Ki was 31.7 nM. `CC(=O)Nc1cccc(C2CCN(CCCNC(=O)C(C)c3ccc(Cl)cc3)CC2)c1` (stereo not shown) [Example 95, N-(3-{4-[3-(ACETYLAMINO)PHENYL]-1-PIPERIDINYL}PROPYL)-2-(4-CHLOROPHENYL) PROPANAMIDE] was tested, and the Ki was 23.5 nM. For `CC(C)C(=O)Nc1cccc(C2CCN(CCCNC(=O)C3(c4ccc(Cl)cc4)CC3)CC2)c1` [Example 44, 1-(4-CHLOROPHENYL)-N-(3-{4-[3-(ISOBUTYRYLAMINO)PHENYL]-1-PIPERIDINYL} PROPYL)CYCLOPROPANECARBOXAMIDE], the Ki was 19.7 nM. `CC(C)C(=O)Nc1cccc(C2CCN(CCCNC(=O)C(C)c3ccc(Cl)cc3)CC2)c1` (stereo not shown) [Example 37, 2-(4-CHLOROPHENYL)-N-(3-{4-[3-(ISOBUTYRYLAMINO)PHENYL]-1-PIPERIDINYL} PROPYL)PROPANAMIDE] was tested, and the Ki was 19.5 nM. For `CC(C)C(=O)Nc1ccc(F)c(C2CCN(CCCNC(=O)C3(c4ccc(F)cc4)CCCCC3)CC2)c1` [Example 131], the Ki was 4 nM. For `CCCC(=O)Nc1ccc(C2CCN(CCCNC(=O)C(c3ccccc3)c3ccccc3)CC2)cc1` [Example 149], the Ki was 467 nM. `CC(C)(C)C(=O)Nc1cccc(C2CCN(CCCNC(=O)C(c3ccccc3)c3ccccc3)CC2)c1` [Example 18] gave a Ki of 31.5 nM. In the case of `CC(C)C(=O)Nc1cccc(C2CCN(CCCNC(=O)C(c3ccccc3)(c3ccccc3)c3ccccc3)CC2)c1` [Example 59], the Ki is reported as 4.3 nM. With `O=C(Nc1cccc(C2CCN(CCCNC(=O)C(c3ccc(F)cc3)c3ccc(F)cc3)CC2)c1)OCc1ccccc1` [Example 141, Benzyl 3-[1-(3-{[bis(4-fluorophenyl)acetyl]amino}propyl)-4-piperidinyl]phenylcarbamate] the Ki was 8.8 nM. `CCCC(=O)Nc1cccc(C2CCN(CCCNC(=O)C(c3ccc(F)cc3)c3ccc(F)cc3)CC2)c1` [Example 27, N-{3-[1-(3-{[2,2-BIS(4-FLUOROPHENYL)ACETYL]AMINO}PROPYL)-4-PIPERIDINYL] PHENYL}BUTANAMIDE] gave a Ki of 1.1 nM. `CC(C)C(=O)Nc1cc(C2CCN(CCCNC(=O)C(C)(c3ccccc3)c3ccccc3)CC2)ccc1F` [Example 51] gave a Ki of 11.8 nM. `Cc1ccc(C(C(=O)NCCCN2CCC(c3cc(NC(=O)C(C)C)ccc3F)CC2)c2ccc(C)cc2)cc1` [Example 132] showed a Ki of 0.6 nM. In the case of `Cc1ccc(NC(=O)C(C)C)cc1C1CCN(CCCNC(=O)C2(c3ccc(Cl)cc3)CCC2)CC1` [Example 86], the Ki is reported as 3.2 nM. Compound `CC(C)C(=O)Nc1cccc(C2CCN(CCCNC(=O)C3(c4ccc(F)cc4Cl)CCCC3)CC2)c1` [Example 38] has a Ki of 28.4 nM. `O=C(Nc1cccc(C2CCN(CCCNC(=O)C3(c4ccc(Cl)cc4)CC3)CC2)c1)C1CC1` [Example 118] showed a Ki of 13.9 nM. Compound `Cc1ccc(NC(=O)C(C)C)cc1C1CCN(CCCNC(=O)[C@@H](C)c2ccc(Cl)cc2)CC1` [Example 166, (2S)-2-(4-chlorophenyl)-N-(3-{4-[5-(isobutyrylamino)-2-methylphenyl]-1-piperidinyl}propyl) propanamide] has a Ki of 5.7 nM. `CC(C)C(=O)Nc1cccc(C2CCN(CCCNC(=O)C3(c4ccc(Cl)cc4)CCCC3)CC2)c1` [Example 31, 1-(4-CHLOROPHENYL)-N-(3-{4-[3-(ISOBUTYRYLAMINO)PHENYL]-1-PIPERIDINYL} PROPYL)CYCLOPENTANECARBOXAMIDE] gave a Ki of 8.2 nM. `Cc1ccc(NC(=O)C(C)C)cc1C1CCN(CCCNC(=O)C(F)(F)c2ccccc2)CC1` [Example 124] gave a Ki of 39.9 nM. `O=C(Nc1cccc(C2CCN(CCCNC(=O)C(c3ccccc3)c3ccccc3)CC2)c1)OCc1ccccc1` [Example 140, Benzyl 3-(1-{3-[(Diphenylacetyl)Amino]Propyl}-4-Piperidinyl)Phenylcarbamate] gave a Ki of 180 nM. Work on `Cc1ccc(NC(=O)C(C)C)cc1C1CCN(CCCNC(=O)C(c2ccc(Cl)cc2)c2ccc(Cl)cc2)CC1` [Example 52] yielded a Ki of 4.1 nM. In the case of `CC(=O)Nc1cccc(C2CCN(CCCNC(=O)C3(c4ccc(Cl)cc4)CC3)CC2)c1` [Example 71, N-(3-{4-[3-(ACETYLAMINO)PHENYL]-1-PIPERIDINYL}PROPYL)-1-(4-CHLORO PHENYL) CYCLOPROPANECARBOXAMIDE], the Ki is reported as 54.5 nM. `Cc1ccc(C(C(=O)NCCCN2CCC(c3cccc(NC(=O)C(C)C)c3)CC2)c2ccc(C)cc2)cc1` [Example 34, N-{3-[1-(3-{[BIS(4-METHYLPHENYL)ACETYL]AMINO}PROPYL)-4-PIPERIDINYL] PHENYL}-2-METHYLPROPANAMIDE] showed a Ki of 2.3 nM. In the case of `CC(C)C(=O)Nc1cccc(C2CCN(CCCNC(=O)C3(c4ccc(F)cc4)CCCC3)CC2)n1` [Example 66, 1-(4-FLUOROPHENYL)-N-(3-{4-[6-(ISOBUTYRYLAMINO)-2-pyridinyl]-piperidinyl}propyl) cyclopentanecarboxamide], the Ki is reported as 24.4 nM. `CCC(=O)Nc1cccc(C2CCN(CCCNC(=O)C(Br)c3ccccc3)CC2)c1` (stereo not shown) [Example 10, N-[3-(1-{3-[(2-BROMO-2-PHENYLACETYL)AMINO]PROPYL}-4-PIPERIDINYL) PHENYL]PROPANAMIDE] was tested, and the Ki was 83 nM. Compound `CC(C)(C)CC(=O)Nc1cccc(C2CCN(CCCNC(=O)C(c3ccccc3)c3ccccc3)CC2)c1` [Example 19] has a Ki of 23.4 nM. With `Cc1ccc(NC(=O)C(C)C)cc1C1CCN(CCCNC(=O)C(C)(c2ccccc2)c2ccccc2)CC1` [Example 96] the Ki was 2.6 nM. For `Cc1ccc(NC(=O)C(C)C)cc1C1CCN(CCCNC(=O)C2(c3ccc(F)cc3)CCCCC2)CC1` [Example 92], the Ki was 2.6 nM. For `CC(C)C(=O)Nc1ccc(F)c(C2CCN(CCCNC(=O)C3(c4ccc(F)cc4Cl)CCCCC3)CC2)c1` [Example 133, 1-(2-CHLORO-4-FLUOROPHENYL)-N-(3-{4-[2-FLUORO-5-(ISOBUTYRYLAMINO) PHENYL]-1-PIPERIDINYL}PROPYL)CYCLO HEXANECARBOXAMIDE], the Ki was 5.9 nM. For `CC(C)C(=O)Nc1cc(C2CCN(CCCNC(=O)C(c3ccc(F)cc3)c3ccc(F)cc3)CC2)c(F)cc1F` [Example 165, N-{5-[1-(3-{[bis(4-fluorophenyl)acetyl]amino}propyl)-4-piperidinyl]-2,4-difluorophenyl}-2-methylpropanamide], the Ki was 1.1 nM. With `CC(C)C(=O)Nc1cccc(C2CCN(CCCNC(=O)C3(c4ccc(F)cc4)CCCCC3)CC2)c1` [Example 40, 1-(4-FLUOROPHENYL)-N-(3-{4-[3-(ISOBUTYRYLAMINO)PHENYL]-1-PIPERIDINYL} PROPYL)CYCLOHEXANECARBOXAMIDE] the Ki was 7.9 nM. In the case of `Cc1ccc(NC(=O)C(C)C)cc1C1CCN(CCCNC(=O)C2(c3ccc(Cl)cc3)CC2)CC1` [Example 89], the Ki is reported as 10.8 nM. Compound `Cc1ccc(NC(=O)C(C)C)cc1C1CCN(CCCNC(=O)C2(c3ccc(Cl)cc3)CCCCC2)CC1` [Example 85] has a Ki of 4.6 nM. In the case of `CC(C)C(=O)Nc1cccc(C2CCN(CCCNC(=O)C(F)(F)c3ccccc3)CC2)c1` [Example 125, N-{3-[1-(3{[DIFLUORO(PHENYL)ACETYL]AMINO}PROPYL)-4-PIPERIDINYL] PHENYL}2-METHYLPROPANAMIDE], the Ki is reported as 124 nM. `CCCC(=O)Nc1ccc(F)c(C2CCN(CCCNC(=O)C(c3ccccc3)c3ccccc3)CC2)c1` [Example 25] showed a Ki of 2.1 nM. In the case of `CC(C)C(=O)Nc1cccc(C2CCN(CCCNC(=O)C(Br)c3ccccc3)CC2)c1` (stereo not shown) [Example 9, N-{3-[1-(3-{[BROMO(PHENYL)ACETYL]AMINO}PROPYL)-4-PIPERIDINYL] PHENYL}-2-METHYLPROPANAMIDE], the Ki is reported as 71.6 nM. In the case of `CC(C)C(=O)Nc1cncc(C2CCN(CCCNC(=O)C(c3ccc(F)cc3)c3ccc(F)cc3)CC2)c1` [Example 172, N-{5-[1-(3-{[bis(4-fluorophenyl)acetyl]amino}propyl)-4-piperidinyl]-3-pyridinyl}-2-methylpropanamide], the Ki is reported as 2.5 nM. Work on `O=C(Nc1cccc(C2CCN(CCCNC(=O)C3(c4ccc(Cl)cc4)CCCC3)CC2)c1)C1CC1` [Example 112] yielded a Ki of 3.2 nM. `CCC(C(=O)NCCCN1CCC(c2cccc(NC(=O)C(C)C)c2)CC1)(c1ccccc1)c1ccccc1` [Example 12] was tested, and the Ki was 13.9 nM. `CC(=O)Nc1cccc(C2CCN(CCCNC(=O)C(c3ccc(F)cc3)c3ccc(F)cc3)CC2)c1` [Example 28, N-(3-{4-[3-(acetylamino)phenyl]-1-piperidinyl}propyl)-2,2-bis(4-fluorophenyl)acetamide] was tested, and the Ki was 0.4 nM. For `CC(C)C(=O)Nc1c(F)cc(F)c(C2CCN(CCCNC(=O)C(c3ccccc3)c3ccccc3)CC2)c1F` [Example 171, N-[3-(1-{3-[(diphenylacetyl)amino]propyl}-4-piperidinyl)-2,4,6-trifluorophenyl]-2-methylpropanamide], the Ki was 9.1 nM. With `CC(C)C(=O)Nc1cccc(C2CCN(CCCNC(=O)C(c3ccc(Cl)cc3)c3ccc(Cl)cc3)CC2)c1` [Example 2, N-{3-[1-(3-{[BIS(4-CHLOROPHENYL)ACETYL]AMINO}PROPYL)-4-PIPERIDINYL] PHENYL}-2-METHYLPROPANAMIDE] the Ki was 2.4 nM. For `CC(C)OC(=O)Nc1cccc(C2CCN(CCCNC(=O)C(c3ccc(F)cc3)c3ccc(F)cc3)CC2)c1` [Example 146, ISOPROPYL 3-[1-(3-{[BIS(4-FLUOROPHENYL)ACETYL]AMINO}PROPYL)-4-PIPERIDINYL]PHENYLCARBAMATE], the Ki was 6.2 nM.
